Test results reported in patent US20160312311A1, “MARKERS FOR ISOCITRATE DEHYDROGENASE INHIBITORS” (NOVARTIS AG, priority 2013, published 2016).

Experiments:
Assay type in all cases: cell-based
[1] = test system: HT1080 and SNU1079 cells; experiment: Histone profiling by LC-MS/MS, compound 162 vs. DMSO; details: 3 μM, 6 days
Protocol: Also profiled were three endogenously mutant cell lines upon modulation of the target by chemical or genetic means in order to evaluate other lysine methylation marks. We used histone acid extracts (as described in Example 1) from HT1080 and SNU1079 cells treated with 3 μM compound 162 or DMSO control for 6 days, as well as SW1353 cells that have been induced (100 ng/mL doxycycline) with IDH2 specific shRNA (shIDH2-891 or shNTC) for 6 days. Histones were further enriched with ActiveMotif® Histone purification mini kit (ActiveMotif Inc., Carlsbad, Calif.)
The purified histones were desalted by off line reversed phase chromatography on an 1200 Agilent tower (Agilent, Santa Clara, Calif.) using a Jupiter® 5 μm C4 300 Å Column 150×2 mm (Phenomenex, Torrance, Calif.). The resulting peak area was used to estimate concentration against the peak area of histones of known concentration. The desalted histones were lyophilyzed prior to lysine derivatization. […]
The data obtained via mass spectrometry was interpreted using Mascot Distiller® (Matrix Science, Boston, Mass.) for identification followed by manual verification. The peak area obtained from the data acquired was processed using Skyline Software® (v1.4.0.422 University of Washington, Seattle, Wash.) for quantitation of the peptides bearing post translational modifications.

[2] = test system: SNU1079 cholangiocarcinoma cells (IDH1-R132C/WT), IDH2-WT background; experiment: H3K9me2 Western blot in SNU1079 expressing IDH2 WT; details: doxycycline-induced IDH2 WT, day 6
Protocol: (§1) As disclosed in Example 4, compound 162 is specific for IDH1 mutations. As such, it is a useful compound to determine the contribution of IDH2 to H3K9me2 methylation levels. SNU1079 cholangiocarcinoma cells (KCLB) contain an IDH1 mutation (IDH1-R132C/WT). These cells were cultured in RPMI-1640 (Life Technologies, Carlsbad, Calif.) supplemented with 1% Sodium Pyruvate and 10% Tet-free fetal bovine serum (Hyclone, Logan Utah). Full length IDH2 cDNAs (WT or R172K) were cloned into pLKO-TREX-neomycin for lentiviral transduction (Wee et al., Proc. Nat. Acad. Sci. U.S.A. 2008 105(35):13057-13062). Lentiviral particles were produced by co-transfecting the cDNA expression vector of interest with packaging plasmids Δ8.9 and VSVG into 293T cells (ATCC CRL-11268) using Transit293® transfection reagent (Mirus, Madison, Wis.). Lentiviral supernatants were then used to spin-infect SNU1079 cells in the presence of 8 μg/mL polybrene. Cells recovered overnight in fresh medium and were then selected and continually cultured in appropriate antibiotics.
(§2) SNU1079 stably expressing IDH2 isoforms were co-treated with doxycycline (100 ng/mL) final concentration to induce IDH2 (WT or R172K) expression. These lines were treated with DMSO or doses of compound 162. Cells were harvested on day 6 post-treatment and processed for histones as described above. […]

[3] = test system: IDH1-R132C mutant HT1080 sarcoma cells; experiment: H3K9me2 immunohistochemistry with quantitative image analysis; details: 5 μM, 6 days
Protocol: In order to determine if changes in H3K9me2 level could be detected via immunohistochemistry, HT1080 cell lines were plated onto […] tissue culture flasks (Corning, Cat #3001, Tewksbury, Mass.). The cells were treated with DMSO or 5 μM compound 162 and incubated for 6 days, with media change at day 3. HT1080 cell pellets were harvested by removing media, washing with 1×PBS, and adding 10 ml of 10% neutral buffer formalin. Cells were then scraped from the bottom of the flask and placed in a 50 ml conical tube, filled to ˜50 ml with 10% neutral buffered formalin, and allowed to fix for 1-2 hours. […]
FFPE slides were cut at 3.5 μm thickness, mounted on charged slides (Thermo-Scientific Colormark® Plus Cat #CM-5951, West Palm Beach, Fla.) and baked at 60° C. for 1 hour. […] The secondary antibody, Ventana OmniMap® HRP-conjugated anti-mouse (Ventana Cat #760-4310 Tucson, Ariz.), was incubated for 4 minutes and detected with Ventana's ChromoMap® DAB detection kit (Ventana Cat #760-159, Tucson, Ariz.). […]
Coverslipped slides were scanned with Aperio ScanScope ® XT (Vista, Calif.) for quantitative digital image analysis. Digital images were analyzed with Visiopharm® (Hoersholm, Denmark) image analysis software. The nuclear detection algorithm detected both hematoxylin and DAB-stained nuclei in the image. […]

[4] = test system: HCT116 cells (wild type for IDH1 and IDH2); experiment: H3K9me2 Western blot in IDH1 and IDH2 wild type cell line; details: increasing concentrations, 3-6 days
Protocol: In order to examine the role of H3K9me2 levels as marker, cells that were wild type for IDH1 and IDH2, for example HCT116 cells, were treated with a compound that inhibits IDH1 mutant activity (compound 162). HCT116 colon cells cancer cells (ATCC CCL-247) were cultured in McCoy's 5A (Life Technologies, Carlsbad, Calif.) supplemented with 10% fetal bovine serum (Hyclone, Logan Utah). These cells were treated for 3-6 days with increasing concentrations of compound 162 or DMSO vehicle as control.
Histone extracts were prepared with NuPAGE® 4×LDS Sample Buffer (Life Technologies, Carlsbad, Calif.) and heated to 70° C. for 10 minutes. Samples were run on NuPage® Novex 4-12% Bis-Tris gel (Life Technologies, Carlsbad, Calif.) using MES buffer (Life Technologies, Carlsbad, Calif.). The gel was then transferred onto nitrocellulose membrane using the iBlot system (Life Technologies, Carlsbad Calif.) on setting P3 for 7 minutes. The antibodies used are shown above in Table 1.

[5] = test system: SNU1079 cholangiocarcinoma cells (IDH1-R132C/WT), IDH2-R172K background; experiment: H3K9me2 Western blot in SNU1079 expressing IDH2-R172K; details: doxycycline-induced IDH2-R172K, day 6
Protocol: as §1, §2

With `CC(C)[C@H]1COC(=O)N1c1ccnc(N[C@@H](C)c2ccc(Oc3ccccc3)cc2)n1` [compound 162, (S)-4-isopropyl-3-(2-(((S)-1-(4 phenoxyphenyl)ethyl)amino)pyrimidin-4-yl)oxazolidin-2-one] the “H3K9me0 level, change from control (mass spectrometry, FIG. 7)” value [1] was “H3K9me0 level increases”, the “H3K9me2 level, change from control (mass spectrometry, FIG. 7)” value [1] was “H3K9me2 level reduction” and the “H3K9me2 level (Western blot, FIG. 5 left panel)” value [2] was “able to reduce the H3K9me2 level in a dose-dependent manner”. The “H3K9me2 levels by immunohistochemistry (FIG. 6A)” value [3] was “decreases levels H3K9me2”, the “decrease in H3K9me2 levels, quantitative image analysis (FIG. 6B)” value ([3]; entire cross section, vs DMSO) was 27% and the “H3K9me2 levels (Western blot, FIG. 4)” value [4] was “does not affect H3K9me2 levels”. For the same compound, the “H3K9me2 level (Western blot, FIG. 5 right panel)” value [5] was “the reduction of H3K9me2 level is attenuated”.
